Read-outs that look alike come from different tables or passages of the source.
Columns and labels:
[1] = tested on: Pythium ultimum; assay: Pythium ultimum (Damping off) growth inhibition in potato dextrose broth, microtiter plate; type: cell-based; details: Globisporangium ultimum, 24° C., after 48 hours, read-out: control of fungal infection (inhibition of growth, determined photometrically)
[2] = tested on: Pyrenophora teres; type: in vivo; details: 200 ppm
[3] = tested on: Septoria nodorum; type: in vivo; details: 200 ppm
[4] = tested on: Puccinia recondita f.sp. tritici; type: in vivo; details: 200 ppm

Question: For `CC#CC(C)(C)NC(=O)C(COC)Oc1ccc2ncccc2c1` (centres unmarked) [2(11), 2-(6-quinolinyloxy)-N-(2-methylpent-3-yn-2-yl)-3-methoxypropionamide], which inhibition at 20 ppm ([1]; potato dextrose broth) is on record?
Answer: > 60%

Question: With `CC#CC(C)(C)NC(=O)C(CC)Oc1ccc2ncncc2c1` (centres unmarked) [2(20), 2-(6-quinazolinoxy)-N-(4-methylpent-2-yn-4-yl) butyramide] as the compound, how does the “control of fungal infection (preventive fungicidal activity)” value (from here on “control of fungal infection”) [2] read?
Answer: more than 60%

Question: Which results are given for `CC#CC(C)(C)NC(=O)C(COC)Oc1ccc2ccncc2c1` (centres unmarked) [2(49), 2-(7-isoquinolinyloxy)-N-(2-methylpent-3-yn-2-yl)-3-methoxypropionamide]?
Answer: melting point: 155 to 156 °C; inhibition at 20 ppm ([1]; potato dextrose broth): > 60%

Question: With `CCC(Oc1ccc2ncccc2c1)C(=O)NC(C)(C)C#CCO` (centres unmarked) [10(1), 2-(6-quinolinyloxy)-N-(1-hydroxy-4-methylpent-2-yn-4-yl) butyramide] as the compound, how does the “control of fungal infection” value [3] read?
Answer: more than 60%

Question: Which inhibition at 20 ppm [1] does the source give for `CCC(Oc1ccc2ncccc2c1)C(=O)NC(C)(C)C#CCOC` (centres unmarked) [12(1), 2-(6-quinolinyloxy)-N-(1-methoxy-4-methylpent-2-yn-4-yl)butyramide] here?
Answer: > 60%

Question: With `CCC(Oc1ccc2ncccc2c1)C(=O)NC(C)(C)C#CCO[Si](C)(C)C(C)(C)C` (centres unmarked) [50(1), 2-(6-quinolinyloxy)-N-(1-tert-butyldi-methylsilyloxy-4-methylpent-2-yn-4-yl)butyramide] as the compound, how does the inhibition at 20 ppm [1] read?
Answer: > 60%

Question: With `CCC(Oc1ccc2ncc(Br)cc2c1)C(=O)NC(C)(C)C#CCCCC#N` (centres unmarked) [90(77), 2-(3-bromo-6-quinolinyloxy)-N-(1-cyano-6-methylhept-4-yn-6-yl) butyramide] as the compound, how does the “control of fungal infection” value [4] read?
Answer: more than 60%
